Reference: patent EP0296574A2, “Cholecystokinin analogs for controlling appetite” (F. HOFFMANN-LA ROCHE AG, priority 1987, dated 1988)
Where a SMILES comes first, the peptide text is derived from it. [ ]: non-standard residue; d: D form. Thr(SO3H) = C[C@@H](OS(=O)(=O)O)[C@H](N)C(=O)O; sY = N[C@@H](Cc1ccc(OS(=O)(=O)O)cc1)C(=O)O; NMeF = CN[C@@H](Cc1ccccc1)C(=O)O; Nle = CCCC[C@H](N)C(=O)O

Key:
Bovine Striatum = target: T1, Bovine Striatum (Bos taurus, UniProt P79266); test: In vitro receptor binding assay, inhibition of ³H-CCK-8-(SO₃H) binding to bovine striatum homogenate; details: ³H-CCK-8-(SO₃H) 0.15 nM, 30 min at 25° C; read-out: Bovine Striatum (IC₅₀ value)
T1 construct: tissue homogenate (striatum 0.26 mg protein in 2 ml final volume); from tissue; host or cells: bovine striatum homogenate (membrane pellet)
T1 sequence (P79266 1-454): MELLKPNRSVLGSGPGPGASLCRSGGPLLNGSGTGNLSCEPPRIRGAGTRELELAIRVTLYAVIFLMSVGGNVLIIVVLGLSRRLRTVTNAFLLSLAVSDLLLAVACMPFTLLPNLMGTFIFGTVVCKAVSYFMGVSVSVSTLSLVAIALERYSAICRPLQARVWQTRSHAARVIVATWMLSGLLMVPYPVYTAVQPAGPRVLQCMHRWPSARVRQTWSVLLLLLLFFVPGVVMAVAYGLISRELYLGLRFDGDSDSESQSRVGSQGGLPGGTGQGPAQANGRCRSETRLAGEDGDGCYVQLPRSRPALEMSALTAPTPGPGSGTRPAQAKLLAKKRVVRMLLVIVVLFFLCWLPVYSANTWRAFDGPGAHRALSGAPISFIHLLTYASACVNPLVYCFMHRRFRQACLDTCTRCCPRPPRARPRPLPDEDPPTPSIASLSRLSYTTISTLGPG
Experimental: (§1) The tissue was homogenized 2 x for approx. 15 sec. at 0°C using a Polytron homogenizer at a setting of 6. The tissue was isolated by centrifugation at 48,000 x g for 10 min. at 0°C. […] Samples were incubated for 30 min. at 25° C and the incubation terminated by pouring the mixture onto a pre-wet Whatman GF/B filter on a Sandbeck Vacuum Filtration Manifold. The incubation tubes were washed with 2 x 3 ml of ice-cold HEPES Buffer #2 and the wash filtered through the GF/B filter. The filter was air dried for 10 min. and then placed in a scintillation vial with 12 ml of Beckman HP/b Ready-Solv scintillation cocktail. The vials were shaken for 2 hours and then counted using a Beckman Model 7800 liquid scintillation spectrometer.

Rat Pancreas = target: T2, Rat Pancreas (Rattus norvegicus, UniProt P30551); test: In vitro receptor binding assay, inhibition of ³H-CCK-8-(SO₃H) binding to rat pancreas homogenate; details: ³H-CCK-8-(SO₃H) 0.15 nM, 30 min at 25° C; read-out: Rat Pancreas (IC₅₀ value)
T2 construct: pancreas 0.165 mg protein in 1 ml final volume; from tissue; host or cells: rat pancreas homogenate (membrane pellet)
T2 sequence (P30551 1-444): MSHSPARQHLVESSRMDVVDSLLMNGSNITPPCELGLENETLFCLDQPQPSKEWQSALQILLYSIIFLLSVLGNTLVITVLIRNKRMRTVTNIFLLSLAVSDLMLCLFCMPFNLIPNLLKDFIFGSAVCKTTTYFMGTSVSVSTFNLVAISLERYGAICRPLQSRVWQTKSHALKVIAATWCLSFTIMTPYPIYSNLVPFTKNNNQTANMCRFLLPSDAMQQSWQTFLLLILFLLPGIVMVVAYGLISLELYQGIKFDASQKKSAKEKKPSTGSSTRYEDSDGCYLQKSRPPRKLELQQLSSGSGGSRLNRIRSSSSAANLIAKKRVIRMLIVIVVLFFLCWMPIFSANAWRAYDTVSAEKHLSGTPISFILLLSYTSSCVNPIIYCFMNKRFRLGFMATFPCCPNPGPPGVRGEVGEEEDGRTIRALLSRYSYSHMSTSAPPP
Experimental: as §1

IC50 (Bovine Striatum) [nM]	IC50 (Rat Pancreas) [nM]	SMILES
1 to 3.2	1 to 4.6	CSCC[C@H](NC(=O)[C@H](Cc1ccc(OS(=O)(=O)O)cc1)NC(=O)[C@@H](N)CC(=O)O)C(=O)NCC(=O)N[C@@H](Cc1c[nH]c2ccccc12)C(=O)N[C@@H](CCSC)C(=O)N[C@@H](CC(=O)O)C(=O)N[C@@H](Cc1ccccc1)C(N)=O [CCK-8, reference compound]
245	0.14	CCCC[C@H](NC(=O)[C@H](Cc1ccc(OS(=O)(=O)O)cc1)NC(C)=O)C(=O)NCC(=O)N[C@@H](Cc1c[nH]c2ccccc12)C(=O)N[C@@H](CCCC)C(=O)N[C@H](C(=O)N(C)[C@@H](Cc1ccccc1)C(N)=O)[C@@H](C)OS(=O)(=O)O [Example 1, Ac-Tyr(SO₃H)-Nle-Gly-Trp-Nle-Thr(SO₃H)-N-methyl-Phe-NH₂] (Ac-[sY][Nle]GW[Nle][Thr(SO3H)][NMeF]-NH2)
1600	70	CSCC[C@H](NC(=O)[C@H](Cc1c[nH]c2ccccc12)NC(=O)CNC(=O)[C@H](Cc1ccc(OS(=O)(=O)O)cc1)NC(C)=O)C(=O)N[C@H](C(=O)N(C)[C@@H](Cc1ccccc1)C(N)=O)[C@@H](C)OS(=O)(=O)O [Example 2, Ac-Tyr(SO₃H)-Gly-Trp-Met-Thr(SO₃H)-N-methyl-Phe-NH₂] (Ac-[sY]GWM[Thr(SO3H)][NMeF]-NH2)
